Tested on: snoring
Assay: Activity of the shogaol on snoring in a panel of men and women
Format: in vivo
Conditions: daily doses corresponding to 20 mg of shogaol
Protocol: Daily doses corresponding to 20 mg of shogaol taken in the form of an extract according to example 1 or 2 or of pure shogaol according to example 3 were administered to a panel of men and women. The effects manifest themselves after 48 hours of treatment and persist for 48 hours after stopping the latter. […] Without being bound by theory, it appears that the effect of this molecule and of other vanilloids should be linked to their involvement in emission by certain nociceptive neurons of a neurotransmitter, substance P.

Substance: shogaol
- persistence of the effects after stopping treatment: 48 h
- time of treatment after which the effects manifest themselves: 48 h
- effect on snoring in the user (taken as extract according to example 1 or 2 or pure shogaol according to example 3): considerably reduces snoring

— US20050118287A1, “Use of a vanilloid as an anti-snoring element” (LMD, priority 2002, published 2005)
